From patent publication US9834514B2, “Antibiotic sensitivity-restoring and photosensitive agents” (New Mexico Tech Research Foundation, priority 2015, dated 2017)
≈ marks a conversion by molar mass, not a printed value.

Legend:
[1] = test system: P. aeruginosa; test: Cell killing with compounds and PME at fixed concentrations, with and without white light; type: cell-based; details: 20 μM compound and 0.1 μg/mL PME
Method: FIG. 26 is an example of the treatment of P. aeruginosa with compound 1 and PME at fixed concentrations.
P. aeruginosa cells were also treated with white light upon being incubated with compound 1 for different durations of time. In a 12×75 mm borosilicate glass culture tube, 1 mL of cell suspension was added. PME was added to the cells, and the samples were mixed using a vortex mixer. The resulting samples were incubated for 1.5 hours at 37° C. on a rotary shaking incubator at 100 rpm. Compound 1 was then added, and the samples were incubated for 30 minutes at 37° C. on a rotary shaking incubator at 100 rpm. The samples were then irradiated with white light using a Lumacare™ LC-122 for 2 minutes (irradiation λ1) and incubated overnight at 37° C. The samples were irradiated again with white light using a Lumacare™ LC-122 for 2 minutes (irradiation λ2). Ten-fold dilutions were made of each sample, and 10 μL of each dilution was drip-streaked onto an agar plate. The samples were incubated overnight at 37° C., and colony counts were performed to calculate CFU/mL.
FIG. 55 is an illustrative example of the treatment of P. aeruginosa with compound 1, PME, co-treatment with compound 1 and PME, and co-treatment with compound 1, PME, and light (λ1 and λ2) at fixed concentrations.

[2] = test system: CRE; test: Resensitization to antibiotics (log reduction, TABLE 29); type: cell-based; details: compound 20 μM
Method: (§1) In a 96-well microtiter plate, two-fold dilutions were made of each drug (starting with 100 μM) in 100 μL of a cell suspension in TSB. The resulting samples were incubated overnight at 37° C. on a rotary shaking incubator at 100 rpm. The samples were then visually inspected for turbidity. A 20% well volume of MTT reagent (5 mg/mL) was subsequently added, and the samples were incubated for about 20 minutes.

[3] = test system: drug-resistant bacteria; test: Summary of synergistic activities with antibiotic families (TABLE 45); type: cell-based; details: for Synergy with Oxacillin (β-lactama): *indicated ampicillin, dicloxicillin and Penicillin G
Source text: TABLE 45 summarizes the synergistic activities of the seven classes of clinically used antibiotics and compounds of the invention against a variety of different drug-resistant bacteria.

[4] = test system: VRE; test: Resensitization to antibiotics (log reduction, TABLE 29); type: cell-based, Enterococcus faecalis
Method: as §1

[5] = test system: MRSA (ATCC BAA-44); test: Synergy with oxacillin and norfloxacin and other antibiotics (colony counts); type: cell-based, S. aureus; details: for MICs greater than cells treated with compound alone, with norfloxacin / MICs greater than cells treated with compound alone, with oxacillin: FIGS. 35-38; for Orders of Magnitude with Norfloxacin / Orders of Magnitude with Oxacillin: increase in ability to kill MRSA versus drug or compound alone
Method: The synergy of compounds 1 and 7-11 with oxacillin and norfloxacin was tested against MRSA (ATCC BAA-44). An overnight culture of MRSA was first diluted to about 5×10^5 CFU/mL in TSB. Then, 1 mL of the diluted broth suspension was added to a borosilicate glass culture tube. An appropriate volume of a compound or an antibiotic drug stock was added to the broth suspension and mixed using a vortex mixer. Then an appropriate volume of an antibiotic was added to test synergy with compounds 7-11. The samples were subsequently mixed using a vortex mixer, and the samples were incubated for 18 hours at 37° C. on a rotary shaking incubator. After 18 hours, the test cultures were diluted ten-fold, 10 μL of each dilution was drip-streaked onto a TSA plate, and the samples were incubated for 18 hours at 37° C. Colony counts were then performed and the CFU/mL values were calculated.
TABLE 21 details the MIC values identified in the MRSA assay of compounds 1, 7, 8, 9, 10, 11, various antibiotics, and light.

[6] = test system: HeLa cells; test: Toxicity (IC50) on HeLa cells; type: cell-based, human; details: for IC50: Homo sapiens, cancerous cervical epithelium HeLa cells
Method: The toxicities of the compounds of the invention were determined for human cancerous cervical epithelium HeLa and normal lung fibroblast WI38 cells. The toxicities of EPIs INF-55 and INF-55Cl were quantified as controls. […] TABLE 2 compares the toxicity of compounds 7-11 on HeLa cells and normal WI38 cells.

[7] = test system: VRE; test: MIC against VRE; type: cell-based, Enterococcus faecalis; details: Enterococcus, TABLE 23, read-out: VRE MIC
Method: In a 12×75 mm borosilicate glass culture tube, 1 mL of cell suspension was added. Then, compound 7 was added to the cells, and the samples were mixed using a vortex mixer. […] The samples were incubated overnight at 37° C. on a rotary shaking incubator at 100 rpm.

[8] = test system: Klebsiella pneumoniae (CRE, ATCC BAA-1705); test: Time-dependent colony counts of CRE with compounds and PME; type: cell-based; details: PME 0.2 μg/mL, compound 20 μM; FIGS. 48, 49
Method: The MICs of PME and compounds 8-11 were determined against Klebsiella pneumoniae (CRE, ATCC BAA-1705). […] […] At specific time points, the samples were taken and diluted ten-fold in media. Ten microliters of each dilution was then drip-streaked onto an agar plate and incubated overnight at 37° C. Colony counts were then performed and the CFU/mL were calculated.

[9] = (⅓) MIC compound + (¼) MIC Norfloxacin
[10] = (⅓) MIC compound + (½) MIC Oxacillin
[11] = (½) MIC compound + (¼) MIC Norfloxacin
[12] = (½) MIC compound + (⅓) MIC Oxacillin

With `Brc1ccc(/N=N/c2c[nH]c3ccccc23)cc1` [Compound 8] the “Co-treatment with PME: log reduction in the CFU/mL compared to PME alone” value (“Co-treatment with PME: log reduction” for short) [1] was 4-log reduction, the “Co-treatment with PME: log reduction” value ([1]; listed as compound 8) was ~4 log reduction and the “Log Reduction” value ([2]; PMB (0.2 μg/mL)) was 6. The “Log Reduction” value ([2]; PME (0.2 μg/mL)) was 6, the “Synergy with Polymyxin B (Polypeptides)” value ([3]; A. baumannii ATCC 15151) was “Synergy” and the “Synergy with Polymyxin E (Polypeptides)” value ([3]; A. baumannii ATCC 15151) was “Synergy”. For the same molecule, the “Synergy with Polymyxin B (Polypeptides)” value ([3]; CRE ATCC 1705) was “Synergy”, the “Synergy with Polymyxin E (Polypeptides)” value ([3]; CRE ATCC 1705) was “Synergy” and the “Synergy with Polymyxin B (Polypeptides)” value ([3]; CRE ATCC 2340) was “Synergy”. The “Synergy with Polymyxin E (Polypeptides)” value ([3]; CRE ATCC 2340) was “Synergy”, the “Synergy with Polymyxin B (Polypeptides)” value ([3]; CRE ATCC 2341) was “Synergy” and the “Synergy with Polymyxin E (Polypeptides)” value ([3]; CRE ATCC 2341) was “Synergy”. For the same molecule, the “Synergy with Polymyxin B (Polypeptides)” value ([3]; CRE ATCC 2342) was “Synergy”, the “Synergy with Polymyxin E (Polypeptides)” value ([3]; CRE ATCC 2342) was “Synergy” and the “Synergy with Norfioxacin (Fluoroquinolones)” value (“Synergy with Norfioxacin” below) ([3]; MRSA ATCC BAA-44) was “Synergy”. For the same molecule, the “Synergy with Oxacillin (β-lactama)” value ([3]; MRSA ATCC BAA-44) was “Synergy*”, the “Synergy with Polymyxin B (Polypeptides)” value ([3]; P. aeruginosa ATCC 27853) was “Synergy” and the “Synergy with Polymyxin E (Polypeptides)” value ([3]; P. aeruginosa ATCC 27853) was “Synergy”. The “Synergy with Norfioxacin” value ([3]; VRE ATCC 51299) was “Synergy”, the “Synergy with Tetracycline (Tetracyclines)” value ([3]; VRE ATCC 51299) was “Synergy” and the “Synergy with Vancomycin (Glycopeptides)” value ([3]; VRE ATCC 51299) was “Synergy”. For the same molecule, the “Log Reduction” value ([4]; compound 7.5 μM, Norfloxacin ([…])) was 4-5, the “% Kill” value [5, 9] was 99% and the “Surviving MRSA” value [5, 9] was 1.00 × 10^−2. For the same molecule, the “% Kill” value [5, 10] was 99.9%, the “Surviving MRSA” value [5, 10] was 1.00 × 10^−3 and the “MICs greater than cells treated with compound alone, with norfloxacin” value [5] was “two-fold”. For the same molecule, the “MICs greater than cells treated with compound alone, with oxacillin” value [5] was “three-fold”, the “Orders of Magnitude with Norfloxacin” value [5] was >2 and the “Orders of Magnitude with Oxacillin” value [5] was >3. The IC50 [6] was 31.6 µM, the MIC [7] was 2 µM (≈ 0.6 µg/mL) and the “CRE colony populations on simultaneous treatment with PME” value [8] was “reduced the CRE colony populations to sterility”.

With `Clc1ccc(/N=N/c2c[nH]c3ccccc23)cc1` [Compound 9] the “Co-treatment with PME: log reduction” value [1] was 2-log reduction, the “Co-treatment with PME: log reduction” value ([1]; listed as compound 9) was ~2 log reduction and the “Log Reduction” value ([2]; PMB (0.2 μg/mL)) was 6. The “Log Reduction” value ([2]; PME (0.2 μg/mL)) was 6, the “Synergy with Polymyxin B (Polypeptides)” value ([3]; A. baumannii ATCC 15151) was “Synergy” and the “Synergy with Polymyxin E (Polypeptides)” value ([3]; A. baumannii ATCC 15151) was “Synergy”. For the same molecule, the “Synergy with Polymyxin B (Polypeptides)” value ([3]; CRE ATCC 1705) was “Synergy”, the “Synergy with Polymyxin E (Polypeptides)” value ([3]; CRE ATCC 1705) was “Synergy” and the “Synergy with Polymyxin B (Polypeptides)” value ([3]; CRE ATCC 2340) was “Synergy”. For the same molecule, the “Synergy with Polymyxin E (Polypeptides)” value ([3]; CRE ATCC 2340) was “Synergy”, the “Synergy with Polymyxin B (Polypeptides)” value ([3]; CRE ATCC 2341) was “Synergy” and the “Synergy with Polymyxin E (Polypeptides)” value ([3]; CRE ATCC 2341) was “Synergy”. For the same molecule, the “Synergy with Polymyxin B (Polypeptides)” value ([3]; CRE ATCC 2342) was “Synergy”, the “Synergy with Polymyxin E (Polypeptides)” value ([3]; CRE ATCC 2342) was “Synergy” and the “Synergy with Norfioxacin” value ([3]; MRSA ATCC BAA-44) was “Synergy”. The “Synergy with Oxacillin (β-lactama)” value ([3]; MRSA ATCC BAA-44) was “Synergy*”, the “Synergy with Polymyxin B (Polypeptides)” value ([3]; P. aeruginosa ATCC 27853) was “Synergy” and the “Synergy with Polymyxin E (Polypeptides)” value ([3]; P. aeruginosa ATCC 27853) was “Synergy”. For the same molecule, the “Synergy with Norfioxacin” value ([3]; VRE ATCC 51299) was “Synergy”, the “Synergy with Tetracycline (Tetracyclines)” value ([3]; VRE ATCC 51299) was “Synergy” and the “Synergy with Vancomycin (Glycopeptides)” value ([3]; VRE ATCC 51299) was “Synergy”. For the same molecule, the “Log Reduction” value ([4]; compound 75 μM, Norfloxacin ([…])) was 4, the “Log Reduction” value ([4]; compound 75 μM, Tetracycline (1.5 μg/mL)) was 3-4 and the “% Kill” value [5, 11] was 99%. For the same molecule, the “Surviving MRSA” value [5, 11] was 1.00 × 10^−2, the “% Kill” value [5, 12] was 99% and the “Surviving MRSA” value [5, 12] was 1.00 × 10^−2. For the same molecule, the “MICs greater than cells treated with compound alone, with norfloxacin” value [5] was “two-fold”, the “MICs greater than cells treated with compound alone, with oxacillin” value [5] was “two-fold” and the “Orders of Magnitude with Norfloxacin” value [5] was >2. For the same molecule, the “Orders of Magnitude with Oxacillin” value [5] was >2, the IC50 [6] was 34.4 µM and the “toxicity to HeLa versus normal WI38 cells” value ([6]; comparison of TABLE 2 values) was “killed cancerous HeLa cells at concentrations that were not toxic to normal WI38 cells”. For the same molecule, the MIC [7] was > 200 µM and the “CRE colony populations on simultaneous treatment with PME” value [8] was “reduced the CRE colony populations to sterility”.
